Experimental data: paper PMC8985094, “Chemical constituents from Carica papaya Linn. leaves as potential cytotoxic, EGFR^wt and aromatase (CYP19A) inhibitors; a study supported by molecular docking” (RSC Advances, 2022)
Read-outs that look alike come from different tables or passages of the source.

Columns and labels:
aromatase (CYP19A) = target: T1, aromatase (CYP19A) (Homo sapiens, UniProt P11511); test: Aromatase (CYP19A) inhibitor screening kit (fluorometric); format: biochemical
T1 construct: purchased Bio Vision
T1 sequence (P11511 1-503): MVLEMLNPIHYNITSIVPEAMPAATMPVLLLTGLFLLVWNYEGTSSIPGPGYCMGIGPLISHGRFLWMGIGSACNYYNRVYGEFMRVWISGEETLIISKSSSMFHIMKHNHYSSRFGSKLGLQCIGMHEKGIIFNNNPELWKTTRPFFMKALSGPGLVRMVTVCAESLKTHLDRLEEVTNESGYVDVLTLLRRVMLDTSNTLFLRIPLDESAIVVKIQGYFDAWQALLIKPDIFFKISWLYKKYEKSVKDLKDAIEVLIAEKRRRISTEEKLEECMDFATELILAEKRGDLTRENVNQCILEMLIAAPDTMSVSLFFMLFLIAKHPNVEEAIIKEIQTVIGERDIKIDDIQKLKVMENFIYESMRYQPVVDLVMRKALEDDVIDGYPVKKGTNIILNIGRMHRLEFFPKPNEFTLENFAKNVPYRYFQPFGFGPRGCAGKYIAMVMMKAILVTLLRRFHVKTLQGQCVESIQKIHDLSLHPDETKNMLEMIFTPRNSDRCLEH
Procedure: Breast cancer is mostly reliant on estrogen or progesterone, especially in postmenopausal females. […] Aromatase is the key enzyme that acts on androgen precursors for the synthesis of estrogen. Aromatase inhibitors are used to either block the production of estrogen or block the action of estrogen on its receptors and for treatment of estrogen dependant breast cancer.[32,33]
The compounds were dissolved in DMSO in concentrations ranging from 10 to 10^4 nM. The recombinant human aromatase stock was prepared according to the protocol and the samples were added and the plate was incubated for 10 min at 37 °C to allow tested compounds to interact with the aromatase.
(§1) Results are expressed as mean ± standard deviation (SD) based on triplicate experiments. The IC50 values of the tested compounds were determined using curve fitting in the R programming language and associated packages including Magrittr,[45] drc[46] and ggplot2.[47] Graphs and figures were generated using R console and PyMOL (PyMOL Molecular Graphics System, Schrödinger).

EGFR^wt kinase = EGFR^wt kinase (Homo sapiens, UniProt P00533); test: EGFR^wt kinase inhibition assay (BPS Kinase Assay Kit, Kinase-Glo)
Procedure: Then, the reaction was stopped by the addition of a detecting reagent (Kinase-Glo Max reagent), followed by incubation at room temperature for another 15 min. Finally, luminescence was measured using the microplate Robonik P2000 ELISA Reader.

MCF-7 cell line = test: MTT cytotoxicity assay in breast cancer cell line (MCF-7); format: cell-based; settings: Homo sapiens, read-out: IC50 on MCF-7 cell lines
Procedure: The cytotoxic effect of the isolated compounds from C. papaya on MCF-7 cells line was evaluated using MTT assay which measures metabolic activity as an indicator of cellular viability and proliferation.
Briefly, breast cancer cell line (MCF-7) were obtained from American Type Culture Collection and cultured in DMEM medium (Invitrogen/Life Technologies) supplemented with 10% FBS (Hyclone, USA). Insulin (10 μg mL^−1, Sigma-Aldrich, USA) and 1% penicillin–streptomycin. the cells were seeded in 96-well plates (VWR, Switzerland) at cell density 1.2–1.8 × 10^4 cells per well. […] After treatments, the medium was removed from all wells of the plate and 20 μL of the MTT reagent (Sigma-Aldrich, USA) (0.5 mg mL^−1) in PBS was added and incubated for 3.5 h at 37 °C. The solution was removed and 50 μL of DMSO was added, incubated for 5 min and the absorbance was measured at 570 nm.
as §1

[1] = in vitro enzymatic inhibition, recombinant human aromatase, mean ± SD, read-out: IC50 Aromatase
[2] = MCF7, MTT assay, 24 h treatment, mean ± SD

EGFR^wt kinase, sequence (P00533 25-1210): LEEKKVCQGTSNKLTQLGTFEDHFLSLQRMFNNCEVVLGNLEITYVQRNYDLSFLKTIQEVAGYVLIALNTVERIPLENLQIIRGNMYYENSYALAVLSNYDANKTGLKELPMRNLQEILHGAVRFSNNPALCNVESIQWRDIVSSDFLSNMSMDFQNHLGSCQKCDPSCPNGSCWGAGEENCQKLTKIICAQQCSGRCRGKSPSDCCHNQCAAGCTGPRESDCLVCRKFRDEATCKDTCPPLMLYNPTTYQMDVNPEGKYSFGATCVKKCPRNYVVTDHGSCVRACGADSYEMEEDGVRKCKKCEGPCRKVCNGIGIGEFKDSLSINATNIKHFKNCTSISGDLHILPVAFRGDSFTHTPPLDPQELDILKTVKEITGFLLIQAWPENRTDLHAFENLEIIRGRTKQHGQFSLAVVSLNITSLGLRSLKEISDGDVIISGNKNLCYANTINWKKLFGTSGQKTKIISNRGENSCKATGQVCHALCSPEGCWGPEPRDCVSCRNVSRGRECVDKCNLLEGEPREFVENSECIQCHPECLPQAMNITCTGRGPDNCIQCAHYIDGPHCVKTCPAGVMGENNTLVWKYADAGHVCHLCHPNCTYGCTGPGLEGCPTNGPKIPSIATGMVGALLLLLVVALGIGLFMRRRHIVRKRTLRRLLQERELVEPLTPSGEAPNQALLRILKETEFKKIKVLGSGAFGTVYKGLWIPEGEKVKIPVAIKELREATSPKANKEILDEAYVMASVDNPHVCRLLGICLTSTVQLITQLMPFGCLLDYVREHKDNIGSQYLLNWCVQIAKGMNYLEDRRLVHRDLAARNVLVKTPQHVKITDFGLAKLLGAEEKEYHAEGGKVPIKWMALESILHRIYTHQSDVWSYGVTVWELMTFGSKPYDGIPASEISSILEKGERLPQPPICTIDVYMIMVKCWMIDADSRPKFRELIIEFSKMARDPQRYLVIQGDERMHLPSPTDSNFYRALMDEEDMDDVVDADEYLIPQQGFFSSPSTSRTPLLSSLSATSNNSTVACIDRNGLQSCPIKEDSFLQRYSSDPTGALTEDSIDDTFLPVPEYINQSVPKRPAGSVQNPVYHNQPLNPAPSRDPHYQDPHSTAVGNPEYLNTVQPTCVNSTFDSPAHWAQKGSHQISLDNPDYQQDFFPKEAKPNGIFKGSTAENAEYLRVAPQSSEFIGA

SMILES | IC50 (aromatase (CYP19A)) | IC50 (EGFR^wt kinase) | IC50 (MCF-7 cell line; MCF7, 24 h) | IC50 (aromatase (CYP19A); [1]) | IC50 (MCF-7 cell line; [2])
C[C@@H]1N[C@@H]2CCCCCCCC(=O)O[C@H]3CC[C@@H](CCCCCCCC(=O)O[C@H]1CC2)N[C@H]3C [Compound 1, carpaine] | 108 ± 6.32 nM | 47.6 ± 2.4 nM | 13700 ± 780 nM | – | –
C[C@@H]1O[C@@H](O[C@H]2[C@H](Oc3c(-c4ccc(O)cc4)oc4cc(O)cc(O)c4c3=O)O[C@H](CO)[C@@H](O)[C@@H]2O)[C@H](O)[C@H](O)[C@H]1O [Compound 6, kaempferol 3-O-(2′′-O-α-L-rhamnopyranosyl)-β-D-glucopyranoside] | – | 64.5 ± 3.3 nM | – | 335 ± 19.6 nM | 3580 ± 200 nM
C[C@@H]1O[C@@H](OC[C@H]2O[C@@H](Oc3c(-c4ccc(O)cc4)oc4cc(O)cc(O)c4c3=O)[C@H](O)[C@@H](O)[C@@H]2O)[C@H](O)[C@H](O)[C@H]1O [Compound 8, kaempferol-3-O-rutinoside] | – | 41.1 ± 2.1 nM | – | 92.8 ± 5.44 nM | 4940 ± 280 nM
COC(=O)c1cc(O)c(O)c(O)c1 [Compound 2, methyl gallate] | – | 37.3 ± 1.9 nM | – | 94.1 ± 5.51 nM | 1110 ± 60 nM
C[C@@H]1O[C@@H](OC[C@H]2O[C@@H](Oc3c(-c4ccc(O)cc4)oc4cc(O)cc(O)c4c3=O)[C@H](O[C@@H]3O[C@@H](C)[C@H](O)[C@@H](O)[C@H]3O)[C@@H](O)[C@@H]2O)[C@H](O)[C@H](O)[C@H]1O [Compound 5, kaempferol 3-O-(2′′,6′′-di-α-O-rhamnopyranosyl)-β-glucopyranoside] | – | 89.6 ± 4.6 nM | – | 77.4 ± 4.53 nM | 2470 ± 140 nM
COc1cc(-c2oc3cc(O)cc(O)c3c(=O)c2OC2OC(CO)C(O)C(O)C2O)ccc1O [Compound 9, isorhamnetin 3-O-β-D-glucopyranoside] | – | 100 ± 5.1 nM | – | 436 ± 25.6 nM | 9510 ± 540 nM
CC1(C)C[C@H](O)C[C@@]2(C)OC(=O)C=C12 [Compound 3, loliolide] | – | 68.8 ± 3.5 nM | – | 208 ± 12.2 nM | 28200 ± 1610 nM
O=c1c(O[C@@H]2O[C@H](CO)[C@@H](O)[C@H](O)[C@H]2O)c(-c2ccc(O)c(O)c2)oc2cc(O)cc(O)c12 [Compound 7, quercetin-3-O-β-D-glucopyranoside] | – | 83.4 ± 4.2 nM | – | 354 ± 20.7 nM | 13100 ± 750 nM
C[C@@H]1O[C@@H](OC[C@H]2O[C@@H](Oc3c(-c4ccc(O)c(O)c4)oc4cc(O)cc(O)c4c3=O)[C@H](O)[C@@H](O)[C@@H]2O)[C@H](O)[C@H](O)[C@H]1O [Compound 4, quercetin-3-O-rutinoside] | – | 44.5 ± 2.3 nM | – | 148 ± 8.64 nM | 25600 ± 1460 nM
